From ChEMBL document CHEMBL5727303, “Substituted perhydropyrrolo[3,4-c]pyrrole derivatives and the use of same” (2019)

Tests used:
[1] = target: Potassium channel subfamily K member 9 (Homo sapiens, UniProt Q9NPC2); assay: (§1) In Vitro Electrophysiological Assay: In Vitro Electrophysiological Analysis of the Human TASK-1 and TASK-3 Channels Via Two-Electrode Voltage Clamp Technique in Xenopus laevis OocytesSubsequently, the oocytes were injected with 0.5-5 ng of a cRNA solution coding for TASK-1 or TASK-3. For the electrophysiological analysis of the channel proteins expressed in the oocytes, the two-electrode voltage clamp technique was used. The measurements were conducted at room temperature (21-22° C.) using a Turbo TEC 10CD amplifier (NPI), recorded at 2 kHz and filtered with 0.4 kHz. Substance administration was performed using a gravitation-driven perfusion system. Here, the oocyte is located in a measuring chamber and exposed to the solution stream of 10 ml/min. The level in the measuring chamber is monitored and regulated by sucking off the solution using a peristaltic pump.; type: cell-based
Sequence of Potassium channel subfamily K member 9 (Q9NPC2 whole entry, the tested form may be a part): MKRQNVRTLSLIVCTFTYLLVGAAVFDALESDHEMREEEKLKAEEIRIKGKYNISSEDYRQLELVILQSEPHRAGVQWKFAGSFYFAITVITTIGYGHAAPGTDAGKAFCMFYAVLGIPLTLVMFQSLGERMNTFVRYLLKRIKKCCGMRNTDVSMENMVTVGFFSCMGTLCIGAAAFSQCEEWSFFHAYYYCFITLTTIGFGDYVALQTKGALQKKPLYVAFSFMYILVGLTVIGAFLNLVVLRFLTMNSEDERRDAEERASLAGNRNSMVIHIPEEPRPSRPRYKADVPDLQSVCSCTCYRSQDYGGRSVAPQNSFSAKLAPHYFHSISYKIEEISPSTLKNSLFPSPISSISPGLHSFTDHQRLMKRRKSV

[2] = target: Potassium channel subfamily K member 3 (Homo sapiens, UniProt O14649); assay: as §1; type: cell-based
Sequence of Potassium channel subfamily K member 3 (O14649 whole entry): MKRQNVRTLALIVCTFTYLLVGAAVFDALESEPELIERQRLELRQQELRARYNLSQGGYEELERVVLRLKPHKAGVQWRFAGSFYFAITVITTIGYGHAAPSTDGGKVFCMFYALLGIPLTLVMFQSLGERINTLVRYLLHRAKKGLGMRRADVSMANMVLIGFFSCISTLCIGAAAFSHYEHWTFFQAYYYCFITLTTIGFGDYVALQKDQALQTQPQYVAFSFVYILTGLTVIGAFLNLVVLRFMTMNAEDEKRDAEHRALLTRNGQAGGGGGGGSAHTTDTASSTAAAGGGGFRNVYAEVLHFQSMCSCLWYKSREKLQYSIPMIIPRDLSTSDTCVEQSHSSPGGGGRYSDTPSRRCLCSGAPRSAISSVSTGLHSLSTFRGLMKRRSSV

CCOc1ccccc1NC(=O)N1CC2CN(Cc3c(-c4ccc(Br)cc4)nc4ccccn34)CC2C1 (configuration not stated)
IC50 [1]: 3.7 µM
IC50 [2]: 740 nM
